The target in the assay is T1, GK (glucokinase, residues 12-465) (Homo sapiens, UniProt P35557).
T1 construct: I.D. No. 1 corresponds to residues 12-465 of glucokinase; made in house; host or cells: DH10b-T1r E. coli
T1 sequence (P35557 with tags, fused parts or gaps isoform P35557-2): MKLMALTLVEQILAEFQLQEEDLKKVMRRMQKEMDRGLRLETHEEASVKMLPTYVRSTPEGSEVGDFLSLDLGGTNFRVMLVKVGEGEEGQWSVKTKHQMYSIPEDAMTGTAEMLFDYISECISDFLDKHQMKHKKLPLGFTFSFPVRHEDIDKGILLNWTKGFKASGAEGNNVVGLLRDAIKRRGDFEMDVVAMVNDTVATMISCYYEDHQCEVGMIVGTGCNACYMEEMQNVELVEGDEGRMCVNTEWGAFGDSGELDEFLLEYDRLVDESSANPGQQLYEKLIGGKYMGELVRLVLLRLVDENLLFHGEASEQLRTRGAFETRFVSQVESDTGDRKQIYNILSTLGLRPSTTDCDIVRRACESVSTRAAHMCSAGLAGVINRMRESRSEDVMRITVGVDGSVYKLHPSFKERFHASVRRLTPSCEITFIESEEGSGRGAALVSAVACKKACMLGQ
As to the kind of experiment: enzymatic glucokinase activity assay (ATP consumption, KinaseGlo luminescence). It counts as biochemical. The settings on record: 5 μM ATP, 5 mM Glucose, reported as bins; for EC50: Kact = concentration that displays 50% of the maximal increase in GK activity, 60 min, room temperature, read-out: pKact. The text has this: The activity of compounds as glucokinase activators may be assayed in vitro, in vivo or in a cell line. Provided below is an enzymatic glucokinase activity assay.
Purified glucokinase may be obtained as follows. […] SEQ.
The expression of recombinant glucokinase protein may be carried out by transformation and growth of DH10b-T1r E. coli cells incorporating the (pFLAG-CTC) plasmid in LB media. Protein expression can be induced in this system by the addition of IPTG to the culture medium.
Recombinant protein may be isolated from cellular extracts by passage over Sepharose Q Fast Flow resin (Pharmacia). This partially purified GK extract may then be further purified by a second passage over Poros HQ10 (Applied Biosystems). The purity of GK may be determined on denaturing SDS-PAGE gel. Purified GK may then be concentrated to a final concentration of 20.0 mg/ml. After flash freezing in liquid nitrogen, the proteins can be stored at −78° C. in a buffer containing 25 mM TRIS-HCl pH 7.6, 50 mM NaCl, and 0.5 mM TCEP.
The activation properties of compounds for GK may be determined using a black 384-well-plate format under the following reaction conditions: 25 mM Hepes pH 7.2, 25 mM NaCl, 10 mM MgCl2, 0.01% Brij35, 1 mM DTT, 5 μM ATP, 5 mM Glucose 2% DMSO. The amount of ATP consumed may be determined quantitatively by addition of equal volume of luciferase reagent (luciferase+beetle luciferin—KinaseGlo Luminescent Kinase Assay kit from Promega). The luminescence intensity may be measured by using the Analyst HT from LJL Biosystems.
The reaction mixture may then be incubated at room temperature for 60 min, and quenched and developed by addition of 10 μL of luciferase reagent. Luminescence intensities of the resulting reaction mixtures may be measured after a 10 min incubation at room temperature. The luminescence intensity may be measured by using the Analyst HT from LJL Biosystems.
pKact and % ACTmax values may be calculated by non-linear curve fitting of the compound concentrations and luminescence intensities to a standard inhibition/activation equation.

[1] abbreviates: calculated maximal gain in GK enzyme activity at a saturating concentration of the compound, read-out: % ACTmax.

Structures can show the parent of a compound that is named as a salt. Where two headings read alike, the source gives them in different places.

With `O=C(Nc1ncc(Cl)s1)C(CC1CCOCC1)n1ncc2c(S(=O)(=O)C3CC3)cc(F)cc21` (stereo not shown) [Compound 67, N-(5-chlorothiazol-2-yl)-2-(4-(cyclopropylsulfonyl)-6-fluoro-1H-indazol-1-yl)-3-(tetrahydro-2H-pyran-4-yl)propanamide], the EC50 was ≤ 0.316 µM. Besides, the Emax under setting [1] is 106 to 110%.
On the same counts, the results for `CS(=O)(=O)c1cccc2c1cnn2C(CC1CCOCC1)C(=O)Nc1ncc(F)s1` (stereo not shown) [Compound 41, N-(5-fluorothiazol-2-yl)-2-(4-(methylsulfonyl)-1H-indazole-1-yl)-3-(tetrahydro-2H-pyran-4-yl)propanamide] are 1.58 to 3.16 µM and ≤ 90%.
On the same counts, the results for `O=C(Nc1ncc(F)s1)[C@H](CC1CCOCC1)n1ncc2c(S(=O)(=O)C3CC3)cc(Cl)cc21` [Compound 141, (S)-2-(6-chloro-4-(cyclopropylsulfonyl)-1H-indazol-1-yl)-N-(5-fluorothiazol-2-yl)-3-(tetrahydro-2H-pyran-4-yl)propanamide] are ≤ 0.316 µM and 90 to 100%.
Take `O=C(Nc1cnccn1)C(CC1CCOCC1)n1ncc2c(S(=O)(=O)C3CC3)cncc21` (stereo not shown) [20 (TFA Salt), 2-(4-(cyclopropylsulfonyl)-1H-pyrazolo[3,4-c]pyridin-1-yl)-N-(pyrazin-2-yl)-3-(tetrahydro-2H-pyran-4-yl)propanamide]: the EC50 lay in the range of 1.58 to 3.16 µM. For the same molecule, the “% ACTmax” value (calculated maximal gain in GK enzyme activity at a saturating concentration of the compound) is on record as 106-110%.
As to `N#Cc1cnc(NC(=O)[C@H](CC2CCOCC2)n2ncc3c(S(=O)(=O)C4CC4)cccc32)s1` [Compound 136, (S)-N-(5-cyanothiazol-2-yl)-2-(4-(cyclopropylsulfonyl)-1H-indazol-1-yl)-3-(tetrahydro-2H-pyran-4-yl)propanamide], the EC50 was 0.398 to 1.26 µM. Also, the Emax under setting [1] was ≥ 111%.
For `O=C1CC[C@H](C[C@@H](C(=O)Nc2ncc(Cl)s2)n2ncc3c(S(=O)(=O)C4CC4)cccc32)C1` [Compound 113, (S)-N-(5-chlorothiazol-2-yl)-2-(4-(cyclopropylsulfonyl)-1H-indazol-1-yl)-3-((R)-3-oxocyclopentyl)propanamide], in that order: 0.398 to 1.26 µM and 101 to 105%.
`O=C(Nc1cnccn1)C(CC1CCOCC1)n1cc2c(S(=O)(=O)C3CC3)c(F)ccc2n1` (stereo not shown) [Compound 156, 2-(4-(cyclopropylsulfonyl)-5-fluoro-2H-indazol-2-yl)-N-(pyrazin-2-yl)-3-(tetrahydro-2H-pyran-4-yl)proanamide]: the EC50 was ≤ 0.316 µM. The Emax under setting [1] is 101 to 105%.
Consider `COc1ccc2nc(NC(=O)[C@H](CC3CCOCC3)n3cc(S(=O)(=O)C4CC4)cn3)sc2n1` [Compound 26, (S)-2-(4-(cyclopropylsulfonyl)-1H-pyrazol-1-yl)-N-(5-methoxythiazolo[5,4-b]pyridin-2-yl)-3-(tetrahydro-2H-pyran-4-yl)propanamide], for which the EC50 is ≥ 15.8 µM. Further, under setting [1], the Emax was ≤ 90%.
For `O=C(Nc1ncc(Cl)s1)C(CC1CCOCC1)n1ncc2c(S(=O)(=O)C3CC3)cccc21` (stereo not shown) [Compound 59, N-(5-chlorothiazol-2-yl)-2-(4-(cyclopropylsulfonyl)-1H-indazol-1-yl)-3-(tetrahydro-2H-pyran-4-yl)propanamide], in that order: ≤ 0.316 µM and 106 to 110%.
`COc1ccc2nc(NC(=O)[C@@H](CC3CCOCC3)n3cc(S(=O)(=O)C4CC4)cn3)sc2n1` [Compound 25, (R)-2-(4-(cyclopropylsulfonyl)-1H-pyrazol-1-yl)-N-(5-methoxythiazolo[5,4-b]pyridin-2-yl)-3-(tetrahydro-2H-pyran-4-yl)propanamide]: the EC50 was ≥ 15.8 µM. Moreover, the Emax under setting [1] was ≤ 90%.
As for `N#Cc1cc(S(=O)(=O)C2CC2)c2cnn([C@@H](CC3CCOCC3)C(=O)Nc3ncc(F)s3)c2c1` [Compound 133, (S)-2-(6-cyano-4-(cyclopropylsulfonyl)-1H-indazol-1-yl)-N-(5-fluorothiazol-2-yl)-3-(tetrahydro-2H-pyran-4-yl)propanamide], the EC50 is ≤ 0.316 µM. For the same molecule, under setting [1], the Emax is 101 to 105%.
As to `N#Cc1ccc(NC(=O)C(CC2CCOCC2)n2ncc3c(S(=O)(=O)C4CC4)cccc32)nc1` (stereo not shown) [Compound 135, N-(5-cyanopyridin-2-yl)-2-(4-(cyclopropylsulfonyl)-1H-indazol-1-yl)-3-(tetrahydro-2H-pyran-4-yl)propanamide], the EC50 was 0.398 to 1.26 µM. Also, the Emax under setting [1] was 106 to 110%.
On the same counts, the results for `O=C1CC[C@H](C[C@H](C(=O)Nc2ncc(F)s2)n2cc(S(=O)(=O)C3CC3)cn2)C1` [Compound 56, (R)-2-(4-(cyclopropylsulfonyl)-1H-pyrazol-1-yl)-N-(5-fluorothiazol-2-yl)-3-((R)-3-oxocyclopentyl)propanamide] are ≥ 15.8 µM and ≤ 90%.
On the same counts, the results for `Cc1ccc2c(cnn2C(CC2CCOCC2)C(=O)Nc2ccn(C)n2)c1S(=O)(=O)C1CC1` (stereo not shown) [Compound 158, 2-(4-(cyclopropylsulfonyl)-5-methyl-1H-indazol-1-yl)-N-(1-methyl-1H-pyrazol-3-yl)-3-(tetrahydro-2H-pyran-4-yl)propanamide] are 0.398 to 1.26 µM and ≥ 111%.
Consider `O=C(Nc1ncc(F)s1)C(CC1CCOCC1)n1ncc2c(S(=O)(=O)C3CC3)cc(OC(F)F)cc21` (stereo not shown) [Compound 143, 2-(4-(cyclopropylsulfonyl)-6-(difluoromethoxy)-1H-indazol-1-yl)-N-(5-fluorothiazol-2-yl)-3-(tetrahydro-2H-pyran-4-yl)propanamide], for which the EC50 is ≤ 0.316 µM. In addition, the Emax under setting [1] is ≤ 90%.
For `COc1ccc2c(cnn2[C@H](CC2CCOCC2)C(=O)Nc2ccn(C)n2)c1S(=O)(=O)C1CC1` [Compound 110, (R)-2-(4-(cyclopropylsulfonyl)-5-methoxy-1H-indazol-1-yl)-N-(1-methyl-1H-pyrazol-3-yl)-3-(tetrahydro-2H-pyran-4-yl)propanamide], in that order: ≥ 15.8 µM and 106 to 110%.
On the same counts, the results for `NC(=O)c1cnc(NC(=O)C(CC2CCCC2)n2cc(S(=O)(=O)C3CC3)cn2)s1` (stereo not shown) [Compound 57] are 3.98 to 12.6 µM and 101 to 105%.
On the same counts, the results for `O=C(O)c1cnc(NC(=O)C(CC2CCCC2)n2cc(S(=O)(=O)C3CC3)cn2)s1` (stereo not shown) [Compound 7, 2-(3-cyclopentyl-2-(4-(cyclopropylsulfonyl)-1H-pyrazol-1-yl)propanamido)thiazole-5-carboxylic Acid] are 3.98 to 12.6 µM and ≤ 90%.
As for `O=C(NC1CC1)c1nn(C(CC2CCOCC2)C(=O)Nc2ncc(Cl)s2)cc1Cl` (stereo not shown) [Compound 8, 4-chloro-1-(1-(5-chlorothiazol-2-ylamino)-1-oxo-3-(tetrahydro-2H-pyran-4-yl)propan-2-yl)-N-cyclopropyl-1H-pyrazole-3-carboxamide], the EC50 fell in the range of 3.98 to 12.6 µM. Also, the Emax (read-out: % ACTmax, calculated maximal gain in GK enzyme activity at a saturating concentration of the compound) was ≤ 90%.
In the case of `O=C(Nc1ncc(F)s1)C(CC1CCOCC1)n1ncc2c(S(=O)(=O)C3CC3)c(Cl)ccc21` (stereo not shown) [Compound 22, 2-(5-chloro-4-(cyclopropylsulfonyl)-1H-indazol-1-yl)-N-(5-fluorothiazol-2-yl)-3-(tetrahydro-2H-pyran-4-yl)propanamide], the EC50 is ≤ 0.316 µM. In addition, under setting [1], the Emax is ≥ 111%.

(Values after patent US8563730B2, “Pyrazole and fused pyrazole glucokinase activators” (Takeda San Diego, Inc., priority 2008, dated 2013).)
